Experimental data published in US11040053B2, “Compositions and methods for activating “stimulator of interferon gene”13 dependent signalling” (CHINOOK THERAPEUTICS, INC., priority 2015, dated 2021).

Assays:
[1] = target: T1, HAQ allele hSTING (Homo sapiens, UniProt Q86WV6, G230A/H232R/R293Q); experiment: Differential scanning fluorometry (DSF) binding to purified hSTING HAQ allele; conditions: for hSTING Tm Shift HAQ: DSF, 1 mg/ml STING AA140-379, ligand 1 mM
T1 construct: DNA encoding amino acids 140-379 (amino acid numbering corresponding to Swiss Prot Q86WV6); 6xHIS (N, cleaved yes); SUMO (N, cleaved yes); made in house; host or cells: Rosetta2 (DE3) E. coli
T1 sequence (Q86WV6 140-379 G230A/H232R/R293Q limits assumed): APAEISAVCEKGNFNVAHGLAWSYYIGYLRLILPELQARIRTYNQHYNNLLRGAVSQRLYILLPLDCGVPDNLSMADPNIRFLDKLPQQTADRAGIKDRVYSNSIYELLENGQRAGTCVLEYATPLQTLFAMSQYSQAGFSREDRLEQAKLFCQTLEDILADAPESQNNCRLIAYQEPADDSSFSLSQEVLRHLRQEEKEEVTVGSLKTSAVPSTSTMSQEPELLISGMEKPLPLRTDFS
Method: (§1) Cells were grown in lysogeny broth at 37° C. until a […] absorbance of 0.6 was reached. […] Cell pellets were re-suspended on ice in a buffer containing 50 mM Tris hydrochloride (Tris-HCl) pH 7.5, 500 mM sodium chloride (NaCl), 20 mM imidazole, 10% glycerol, 1 mM tris(2-carboxyethyl)phosphine hydrochloride (TCEP) and protease inhibitor tablet (Pierce) (Buffer A). Cells were lysed using an S-450D sonifier (Emmerson industrial) on ice. […] Protein was aliquoted, flash frozen in liquid nitrogen and stored at −80° C. until use.
(§2) The protein is heated in the presence of a dye that binds to and fluoresces in hydrophobic environments. The protein is thermally denatured by heating resulting in increased dye binding to the unfolded protein and fluorescence. The temperature midpoint (Tm) of a proteins denaturation is established by calculating the half maximal value of the denaturation curve. The temperature midpoint of the protein in the presence of a ligand is directly related to the affinity of the ligand for the protein and therefore its ability to stabilize the protein at higher temperatures.
(§3) Samples were placed in hard shell PCR plate (Bio-Rad). The fluorescence as a function of temperature was recorded in a CFX 96 real time PCR machine (Bio-Rad) reading on the HEX channel, excitation 450-490, emission 560-580 nm. The temperature gradient was from 15-80° C. ramping 0.5° C. per 15 seconds and recording every 0.5° C. After subtraction of the background signal from a sample lacking protein and ligand. The midpoint temperature (Tm) was calculated by fitting the curves of the fluorescence as a function of temperature to a Boltzmann sigmoidal function (Graph Pad Prism).

[2] = target: hSTING(WT) (Homo sapiens, UniProt Q86WV6, H232R); experiment: Differential scanning fluorometry (DSF) binding to purified hSTING WT; parameters: DNA encoding amino acids 140-379 (amino acid numbering corresponding to Swiss Prot Q86WV6); 6xHIS (N, cleaved yes); SUMO (N, cleaved yes); made in house; host or cells: Rosetta2 (DE3) E. coli; conditions: for hSTING Tm Shift WT: DSF, 1 mg/ml STING AA140-379, ligand 1 mM
hSTING(WT), sequence (Q86WV6 140-379 H232R): as the sequence (Q86WV6 140-379 G230A/H232R/R293Q limits assumed) above, with A91G, Q154R counted along it
Method: as §1, §2, §3

[3] = target: hSTING(REF) (Homo sapiens, UniProt Q86WV6); experiment: Differential scanning fluorometry (DSF) binding to purified hSTING REF allele; parameters: DNA encoding amino acids 140-379 (amino acid numbering corresponding to Swiss Prot Q86WV6); 6xHIS (N, cleaved yes); SUMO (N, cleaved yes); made in house; host or cells: Rosetta2 (DE3) E. coli; conditions: for hSTING Tm Shift REF: DSF, 1 mg/ml STING AA140-379, ligand 1 mM; for binding relative to OH reference compound, in words: Table 4 comment, REF allele hSTING
hSTING(REF), sequence (Q86WV6 140-379): as the sequence (Q86WV6 140-379 G230A/H232R/R293Q limits assumed) above, with A91G, R93H, Q154R counted along it
Method: as §1, §2, §3

[4] = target: T2, hSTING HAQ allele (Homo sapiens, UniProt Q86WV6, G230A/H232R/R293Q/R71H); experiment: IRF-3 inducible secreted luciferase reporter in THP1-Dual cells without digitonin; assay type: cell-based; conditions: for EC50: without digitonin in THP1 cells (HAQ allele)
T2 construct: a human monocyte cell line containing the hSTING HAQ allele; host or cells: THP1-Dual cells
T2 sequence (Q86WV6 whole entry R71H/G230A/H232R/R293Q): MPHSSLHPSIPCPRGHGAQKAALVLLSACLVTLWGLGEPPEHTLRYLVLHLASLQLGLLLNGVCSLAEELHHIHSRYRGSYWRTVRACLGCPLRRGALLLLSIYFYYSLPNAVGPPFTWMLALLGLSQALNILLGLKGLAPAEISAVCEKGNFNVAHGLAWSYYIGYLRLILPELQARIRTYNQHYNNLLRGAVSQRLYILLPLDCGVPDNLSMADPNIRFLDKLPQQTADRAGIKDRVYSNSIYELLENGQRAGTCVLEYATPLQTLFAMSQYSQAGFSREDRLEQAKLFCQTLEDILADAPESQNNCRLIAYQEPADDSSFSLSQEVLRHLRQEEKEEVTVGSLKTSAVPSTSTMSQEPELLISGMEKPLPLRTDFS
Method: After 30 minutes, cells were washed and fresh RPMI media containing 10% FBS was added, and cells were incubated at 37° C. with 5% CO2 Cell culture supernatants from each sample were collected after overnight incubation, and 10 μL of the cell culture supernatants was added to 50 μL QUANTI-Luc reagent (Invivogen). Type I interferon activation was determined by measuring secreted luciferase levels on a SpectraMax M3 spectrophotometer (Molecular Devices). The EC50 value was determined from the dose-response curve for the 10 concentrations from the serial dilution of the reference compounds and compounds of the invention tested in this assay as listed in Table 5.

| Structure (SMILES) | hSTING Tm Shift HAQ [1] [°C] | hSTING Tm Shift WT [2] [°C] | hSTING Tm Shift REF [3] [°C] | EC50 [4] [µM] | binding relative to OH reference compound, in words ([1]; Table 4 comment, HAQ allele hSTING) | activity relative to OH reference compound, in words ([4]; Table 5 comment, THP1 cells without digitonin) | binding relative to OH reference compound, in words ([2]; Table 4 comment, wild type hSTING) | binding relative to OH reference compound, in words [3] |
| --- | --- | --- | --- | --- | --- | --- | --- | --- |
| Nc1nc2c(ncn2[C@@H]2O[C@@H]3COP(=O)(O)O[C@H]4[C@@H](O)[C@H](n5cnc6c(=O)[nH]c(N)nc65)O[C@@H]4COP(=O)(O)O[C@H]3[C@H]2O)c(=O)[nH]1 [3'3'-(G)(G), cyclic-[G(3′,5′)p-G(3′,5′)p], reference compound] | 9.97 | 6.1 | 6.1 |  |  |  |  |  |
| Nc1nc2c(ncn2[C@@H]2O[C@@H]3CO[P@@](=O)(S)O[C@H]4[C@@H](O)[C@H](n5cnc6c(N)ncnc65)O[C@@H]4CO[P@@](=O)(S)O[C@H]3[C@H]2O)c(=O)[nH]1 [3'3'-RR-(G)(A), reference compound] | 21.0 | 11.1 | 7.2 | 28 |  |  |  |  |
| Nc1nc2c(ncn2[C@@H]2O[C@@H]3CO[P@@](=O)(S)O[C@H]4[C@@H](O)[C@H](n5cnc6c(=O)[nH]c(N)nc65)O[C@@H]4CO[P@@](=O)(S)O[C@H]3[C@H]2O)c(=O)[nH]1 [3'3'-RR-(G)(G), dithio-(Rp,Rp)-cyclic-[G(3′,5′)p-G(3′,5′)p], reference compound] | 15.3 | 9.5 | 10.3 | 75 |  |  |  |  |
| Nc1ncnc2c1ncn2[C@@H]1O[C@@H]2CO[P@@](=O)(S)O[C@H]3[C@H](F)[C@H](n4cnc5c(N)ncnc54)O[C@@H]3CO[P@@](=O)(S)O[C@H]2[C@@H]1F [Compound 7, (2R,3S,3aR,5R,7aR,9R,10S,10aR,12R,14aR)-2,9-bis(6-amino-9H-purin-9-yl)-3,10-difluoro-5,12-dimercaptooctahydro-2H,7H-difuro[3,2-d:3′,2′-j][1,3,7,9]tetraoxa[2,8]diphosphacyclododecine 5,12-dioxide] | 11.2 | 3.1 | 0.3 | 284 |  |  |  |  |
| Nc1ncnc2c1ncn2[C@@H]1O[C@@H]2CO[P@@](=O)(S)O[C@H]3[C@H](F)[C@H](n4cnc5c(N)ncnc54)O[C@@H]3CO[P@](=O)(S)O[C@H]2[C@@H]1F [Compound 7a, (2R,3 S,3aR,5R,7aR,9R,10S,10aR,12S,14aR)-2,9-bis(6-amino-9H-purin-9-yl)-3,10-difluoro-5,12-dimercaptooctahydro-2H,7H-difuro [3,2-d:3′,2′-j][1,3,7,9]tetraoxa[2,8]diphosphacyclododecine 5,12-dioxide] | 3.1 | 0.1 | 0 | > 150 |  |  |  |  |
| Nc1nc2c(ncn2[C@@H]2O[C@@H]3CO[P@@](=O)(S)O[C@H]4[C@@H](F)[C@H](n5cnc6c(=O)[nH]c(N)nc65)O[C@@H]4CO[P@@](=O)(S)O[C@H]3[C@H]2F)c(=O)[nH]1 [Compound 17, 9,9′-((2R,3R,3aR,5R,7aR,9R,10R,10aR,12R,14aR)-3,10-difluoro-5,12-dimercapto-5,12-dioxidooctahydro-2H,7H-difuro [3,2-d:3′,2′-j][1,3,7,9]tetraoxa[2,8]diphosphacyclododecine-2,9-diyl)bis(2-amino-1,9-dihydro-6H-purin-6-one)] | 22.6 | 12.6 | 11.4 | 8 | improved binding | improved activity | improved binding | improved binding |

Further lines, results first:

| hSTING Tm Shift HAQ [1] [°C] | hSTING Tm Shift WT [2] [°C] | hSTING Tm Shift REF [3] [°C] | EC50 [4] [µM] | binding relative to OH reference compound, in words ([1]; Table 4 comment, HAQ allele hSTING) | activity relative to OH reference compound, in words ([4]; Table 5 comment, THP1 cells without digitonin) | binding relative to OH reference compound, in words ([2]; Table 4 comment, wild type hSTING) | binding relative to OH reference compound, in words [3] | Structure (SMILES) |
| --- | --- | --- | --- | --- | --- | --- | --- | --- |
|  |  |  | > 150 |  |  |  |  | Nc1nc2c(ncn2[C@@H]2O[C@@H]3CO[P@@](=O)(S)O[C@H]4[C@@H](F)[C@H](n5cnc6c(=O)[nH]c(N)nc65)O[C@@H]4CO[P@](=O)(S)O[C@H]3[C@H]2F)c(=O)[nH]1 [Compound 17a, 9,9′-((2R,3R,3aR,5R,7aR,9R,10R,10aR,12S,14aR)-3,10-difluoro-5,12-dimercapto-5,12-dioxidooctahydro-2H,7H-difuro [3,2-d:3′,2′-j][1,3,7,9]tetraoxa[2,8]diphosphacyclododecine-2,9-diyl)bis(2-amino-1,9-dihydro-6H-purin-6-one)] |
| 11.4 | 6.4 | 4.3 | 99 |  |  |  |  | Nc1ncnc2c1ncn2[C@@H]1O[C@@H]2CO[P@](=O)(S)O[C@H]3[C@@H](F)[C@H](n4cnc5c(N)ncnc54)O[C@@H]3CO[P@@](=O)(S)O[C@H]2[C@H]1O [Compound 22a, (2R,3R,3aR,5S,7aR,9R,10R,10aS,12R,14aR)-2,9-bis(6-amino-9H-purin-9-yl)-3-fluoro-10-hydroxy-5,12-dimercaptooctahydro-2H,7H-difuro[3,2-d:3′,2′-j][1,3,7,9]tetraoxa[2,8]diphosphacyclododecine 5,12-dioxide] |
| 16.5 | 10.6 | 7.8 | 25 |  |  |  |  | Nc1nc2c(ncn2[C@@H]2O[C@@H]3CO[P@@](=O)(S)O[C@H]4[C@@H](O)[C@H](n5cnc6c(N)ncnc65)O[C@@H]4CO[P@](=O)(S)O[C@H]3[C@H]2F)c(=O)[nH]1 [Compound 23a, 2-amino-9-((2R,3R,3aR,5S,7aR,9R,10R,10aS,12R,14aR)-9-(6-amino-9H-purin-9-yl)-3-fluoro-10-hydroxy-5,12-dimercapto-5,12-dioxidooctahydro-2H,7H-difuro[3,2-d:3′,2′-j][1,3,7,9]tetraoxa[2,8]diphosphacyclododecin-2-yl)-1,9-dihydro-6H-purin-6-one] |
| 14.7 | 10.6 | 8.6 | 78 |  |  |  | improved binding | CC(C)C(=O)Nc1nc2c(ncn2[C@@H]2O[C@@H]3CO[P@@](=O)(S)O[C@H]4[C@@H](F)[C@H](n5cnc6c(NC(=O)c7ccccc7)ncnc65)O[C@@H]4CO[P@@](=O)(S)O[C@H]3[C@H]2F)c(=O)[nH]1 [Compound 25, N-(9-((2R,3R,3aR,5R,7aR,9R,10R,10aR,12R,14aR)-3,10-difluoro-9-(2-isobutyramido-6-oxo-1,6-dihydro-9H-purin-9-yl)-5,12-dimercapto-5,12-dioxidooctahydro-2H,7H-difuro[3,2-d:3′,2′-j][1,3,7,9]tetraoxa[2,8]diphosphacyclododecin-2-yl)-9H-purin-6-yl)benzamide] |
| 8.9 | 6.8 | 5.4 | > 150 |  |  |  |  | CC(C)C(=O)Nc1nc2c(ncn2[C@@H]2O[C@@H]3CO[P@](=O)(S)O[C@H]4[C@@H](F)[C@H](n5cnc6c(NC(=O)c7ccccc7)ncnc65)O[C@@H]4CO[P@@](=O)(S)O[C@H]3[C@H]2F)c(=O)[nH]1 [Compound 25a, N-(9-((2R,3R,3aR,5S,7aR,9R,10R,10aR,12R,14aR)-3,10-difluoro-9-(2-isobutyramido-6-oxo-1,6-dihydro-9H-purin-9-yl)-5,12-dimercapto-5,12-dioxidooctahydro-2H,7H-difuro[3,2-d:3′,2′-j][1,3,7,9]tetraoxa[2,8]diphosphacyclododecin-2-yl)-9H-purin-6-yl)benzamide] |
